From article PMC5232348, “Molecular and Functional Characterization of Three Odorant-Binding Protein from Periplaneta americana” (PLoS ONE, 2017)

Columns and labels:
[1] = molecular target: PameOBP2 (Periplaneta americana, UniProt B6E9U8); test: Binding of fluorescent probe 1-NPN to PameOBP2 (saturation, Scatchard); details: read-out: dissociation constant of 1-NPN for PameOBP2
Protocol: (§1) Emission fluorescence spectra were measured on a Hitachi F-4500 fluorescence spectrophotometer following our previous studies. Firstly, dissociation constants of the PameOBPs for N-phenyl-1-naphtylamine (1-NPN) were calculated to determine the suitability of 1-NPN as a fluorescence reporter. After the determination of the reporter, the affinities of the PameOBPs for each ligand were measured using 2 μM 1-NPN as the fluorescent reporter and 0.25–2.5 μM or 2–40 μM as competitor, in at least three technical replicates. The binding data were analyzed following our previous studies.
(§2) To investigate the role of three PameOBPs in the detection of odorants, we firstly tested the binding affinity of PameOBPs to fluorescent probe 1-NPN. […] Saturation and linear Scatchard plots (Fig 5A) indicated single binding sites in the proteins with no allosteric effects. We were, therefore, able to use the fluorescence competitive binding assay to determine the binding affinities of these three PameOBPs to 87 odorants from apple, grape, peach, pear, the juice of these fruits, and beer.

[2] = molecular target: PameOBP3 (Periplaneta americana, UniProt B6E9U9); test: Binding of fluorescent probe 1-NPN to PameOBP3 (saturation, Scatchard); details: read-out: dissociation constant of 1-NPN for PameOBP3
Protocol: as §1, §2

[3] = molecular target: PameOBP1 (Periplaneta americana, UniProt B6E9U7); test: Binding of fluorescent probe 1-NPN to PameOBP1 (saturation, Scatchard); details: read-out: dissociation constant of 1-NPN for PameOBP1
Protocol: as §1, §2

PameOBP2, sequence (B6E9U8 entry or part of it): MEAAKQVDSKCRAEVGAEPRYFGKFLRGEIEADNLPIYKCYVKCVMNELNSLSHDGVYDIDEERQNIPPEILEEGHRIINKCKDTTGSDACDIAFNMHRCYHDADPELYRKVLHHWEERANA
PameOBP3, sequence (B6E9U9 entry or part of it): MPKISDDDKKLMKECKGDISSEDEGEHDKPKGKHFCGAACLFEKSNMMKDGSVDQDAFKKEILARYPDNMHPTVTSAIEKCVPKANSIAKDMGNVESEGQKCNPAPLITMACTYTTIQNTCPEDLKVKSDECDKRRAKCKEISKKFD
PameOBP1, sequence (B6E9U7 entry or part of it): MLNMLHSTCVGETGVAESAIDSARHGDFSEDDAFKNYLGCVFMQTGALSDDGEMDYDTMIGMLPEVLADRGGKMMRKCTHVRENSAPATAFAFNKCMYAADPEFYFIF

c1ccc(Nc2cccc3ccccc23)cc1 [1-NPN, N-phenyl-1-naphtylamine]
Kd [1]: 8.04 µM | Kd [2]: 24.9 µM | Kd [3]: 20.5 µM
